Measured values as given in PubChem BioAssay (NCI).
Where “and” joins values, the source holds several entries; their conditions need not be identical. Identical values can stand only once.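 Each compound was tested at five concentrations against cells in 96-well plates for 48 hours. GI50 = concentration required for 50% inhibition of growth. Definition used: TGI = concentration required for complete inhibition of growth.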

Tests used:
Assay in all cases: NCI tumour cell line growth inhibition, 48 h
[1] = tested on: SR leukemia
[2] = tested on: NCI-H460 lung
[3] = tested on: PC-3 prostate
[4] = tested on: HS 578T breast
[5] = tested on: MDA-MB-435
[6] = tested on: SW-620 colon
[7] = tested on: SK-MEL-5 melanoma
[8] = tested on: NCI-H522 lung
[9] = tested on: NCI-H23 lung
[10] = tested on: HOP-92 NSCLC

Row | Compound | TGI [1] | TGI [2] | GI50 [3] | TGI [3] | TGI [4] | GI50 [5] | TGI [5] | GI50 [6] | TGI [6] | GI50 [7] | TGI [7] | GI50 [8] | TGI [8] | GI50 [9] | TGI [9] | GI50 [10] | TGI [10] | GI50 [1] | GI50 [2] | GI50 [4]
1 | CC1OC(OC2C(O[C@H]3CC[C@@]4(C)C(=CC[C@H]5[C@@H]6C[C@@H]7O[C@]8(CC[C@@H](C)CO8)[C@@H](C)[C@@H]7[C@@]6(C)CC[C@@H]54)C3)OC(CO)C(OC3OC(CO)C(O)C3O)C2O)C(O)C(O)C1O (some centres not stated) | 2.25 µM | 1.53 µM | 0.533 µM | 1.48 µM and 1.78 µM | 1.78 µM and 2.24 µM | 0.434 µM | 2 µM and 1.57 µM | 0.195 µM | 2.57 µM and 0.419 µM | 0.487 µM | 1.43 µM and 1.67 µM | 1.23 µM | 1.77 µM and 2.47 µM | 1.23 µM | 1.6 µM and 2.47 µM | 1.22 µM | 1.98 µM and 2.46 µM | – | – | –
2 | CCSc1ncc(Br)c(Sc2nc(N)nc3nc[nH]c23)n1 | > 100 µM | 23.4 µM | 4.77 µM | > 100 µM | > 100 µM | 3.72 µM | > 100 µM | 17.7 µM | > 100 µM | 3.8 µM | 49.8 µM | 3.18 µM | 64.9 µM | 2.69 µM | > 100 µM | 1.97 µM | 43.4 µM | 1.83 µM | 3.08 µM | 7.47 µM
3 | COC(=O)[C@H](Cc1cn(C)cn1)NC(=O)[C@@H](NC(=O)Nc1cc(C(F)(F)F)cc(C(F)(F)F)c1)C(C)C | > 10 µM | > 10 µM | 4.35 µM | > 10 µM | > 10 µM | 6.11 µM | > 10 µM | 2.59 µM | 8.25 µM | 2.98 µM | > 10 µM | 1.71 µM | 3.66 µM | 4.6 µM | > 10 µM | 5.48 µM | > 10 µM | 3.08 µM | 3.53 µM | 4.83 µM
4 | CCN1CCN(c2nc(NNC(=O)c3ccccc3)nc(N3CCN(C(c4ccccc4)c4ccccc4)CC3)n2)CC1 | 4.69 µM | 4.63 µM | 1.9 µM | 7.57 µM | 22.3 µM | 1.94 µM | 3.78 µM | 2.3 µM | 5.88 µM | 1.73 µM | 3.14 µM | 2.69 µM | 7.65 µM | 3.17 µM | 11.1 µM | 1.39 µM | 3.7 µM | 1.78 µM | 2.1 µM | 3.3 µM
5 | Nc1nc(=S)c2[nH]cnc2[nH]1 | > 24.7 µM and 15.7 µM | 7 µM and 16.8 µM and 19.8 µM | 1.28 µM and 3.35 µM and 2.83 µM | > 100 µM and 185 µM and > 250 µM | – | 0.349 µM and 0.552 µM | – | 0.564 µM and 3.6 µM and 1.18 µM | – | 1.59 µM and 2.68 µM and 6.68 µM | – | 0.418 µM and 2.07 µM and 1 µM | 3.04 µM and 6.04 µM and 7.26 µM | 0.481 µM and 3.07 µM | – | – | 4.44 µM and 26.8 µM and 32.4 µM | 0.0786 µM and 0.588 µM | 0.332 µM and 0.989 µM | 4.13 µM
6 | Cn1ccnc1C(=O)/C=C/c1ccc(C(=O)Nc2c(F)c(F)c(F)c(F)c2F)cc1 | 2.26 µM | 5.11 µM | 1.62 µM | 6.54 µM | 6.44 µM | 2.02 µM | 4.68 µM | 1.19 µM | 2.86 µM | 1.79 µM | 3.28 µM | 1.8 µM | 3.96 µM | 2.01 µM | 5.35 µM | 2.11 µM | 7.33 µM | 0.339 µM | 1.78 µM | 2.1 µM
7 | COc1ccc(/C=C\c2cc(OC)c(OC)c(OC)c2)c(NS(=O)(=O)c2ccc(C(C)(C)C)cc2)c1O | > 100 µM | 11 µM | 0.369 µM | 17 µM | 19.9 µM | 0.0427 µM | 0.735 µM | 0.329 µM | 23.5 µM | 0.345 µM | 1.83 µM | 0.213 µM | 12.2 µM | 0.497 µM | 17.5 µM | 0.189 µM | 5.92 µM | 0.0453 µM | 0.375 µM | 0.521 µM
8 | COc1cc(/C=C\c2cc(OC)c(OC)c(OC)c2)cc(NS(=O)(=O)c2ccc(Cl)cc2)c1OC | 10.5 µM | 51.4 µM | 0.395 µM | > 100 µM | > 100 µM | 0.188 µM | 0.44 µM | 0.343 µM | > 100 µM | 0.297 µM | 1.17 µM | 0.209 µM | 0.87 µM | 0.71 µM | > 100 µM | 0.72 µM | 72.3 µM | 0.406 µM | 0.364 µM | 0.351 µM
9 | O=NN(CCCl)C(=O)NC1CCCCC1 | – | 69.2 µM and 124 µM and 187 µM | – | 136 µM | 104 µM | – | 102 µM | 18.3 µM and 44.1 µM | 45.9 µM and 108 µM and 98.7 µM | 23 µM and 78.4 µM | 78.5 µM and 133 µM and 209 µM | 12.5 µM and 42.5 µM | 26.1 µM and 75.4 µM and 83.2 µM | 116 µM | 152 µM and 235 µM | 23.6 µM and 42.6 µM | 48.7 µM and 99.1 µM and 74.7 µM | 9.14 µM | 24.1 µM and 67.7 µM | –
